# Measurements taken from patent publication US5189018A, “Method for reduction of central nervous system (CNS) edema resulting from head and spinal cord trauma” (Wayne State University, priority 1991, dated 1993).
# Non-standard residues stand in square brackets, D forms with d. Residues, ends and D or L forms follow the SMILES beside them. Met(O2) = CS(=O)(=O)CC[C@H](N)C(=O)O
# Assays:
# [1] = modified peptide less susceptible to enzymatic degradation, versus ACTH4-10; cited from earlier work
# [2] = test system: cisplatin neuropathy; conditions: in vivo; cited from earlier work
# [3] = Toxicity of subcutaneous doses in the rat model; format: in vivo; conditions: doses up to four times 27.2 ug (65-75 ug/kg), s.c.
# [4] = test system: blood brain barrier permeability; set-up: species or system rat (Wistar); conditions: rat, in vivo
# Source text: (§1) Applicant has developed a reliable physiologic model of potentially reversible, controlled fixed and closed-head injury in the laboratory rat (Wistar, Harlan Sprague-Dawley, Inc. Indianapolis, Ind.) that mimics many of the features of moderate concussion in humans. The model permits long term examination of subsequent cerebrovascular pathophysiological sequelae in conscious, unrestrained animals.
# A rat anesthetized with halothane was mounted in a prone position on the test board and the head was fixed in position by means of the bite plate 30 over which the upper incisors were engaged as shown in FIG. 1c. […]
# Brain vascular volume (BVS) and permeability were determined simultaneously utilizing modified methods of Rapoport, as described below (18). […] Moreover, estimates of BVS determined with either tracer are in agreement with published values obtained at more conventional time-intervals, e.g., two to ten minutes, after intravenous injection with an error of less than 4%. […]
# The experimental protocol for the measurement of blood-to-brain transfer of diffusion-limited substances such as sucrose involved surgical implantation of catheters, one in a femoral vein, the other in the opposite femoral artery, under halothane anesthesia. […] The behavior of the animal was carefully monitored. […]
# [5] = test system: dementias; alcoholic inebriation; conditions: human, in vivo; cited from earlier work
# [6] = test system: intracranial pressure; set-up: species or system rat (Wistar); conditions: rat, in vivo
# Source text: as §1
# A rat anesthetized with halothane was mounted in a prone position on the test board and the head was fixed in position by means of the bite plate 30 over which the upper incisors were engaged as shown in FIG. 1c. The board angle of recline and the axis of pendulum rotation were adjustable to permit a flat or angled (3°-5° ) strike on the chosen head impact site. The optimum applied force/angle was selected from the nomogram. The pendulum was raised to the desired angle and released through a quick-release mechanism to fall into impact with the head. Forces developed by this means ranged from 60 to 85 pounds. […]
# Intracranial pressures were determined in separate but identically treated animals. […] A Camino 431 miniature pressure sensor was inserted into the tubing and pressure was measured on Camino 420 Digital Pressure Monitor System. Intracranial pressure measurements were monitored from 5 minutes before and up to […] following head impaction. […]
structure (smiles),measurement,setting,value
"CS(=O)(=O)CC[C@H](N)C(=O)N[C@@H](CCC(=O)O)C(=O)N[C@@H](Cc1c[nH]cn1)C(=O)N[C@@H](Cc1ccccc1)C(=O)N[C@H](CCCCN)C(=O)N[C@@H](Cc1ccccc1)C(=O)O [Organon 2766, Met (O2) Glu-His-Phe-D-Lys-Phe] (H-[Met(O2)]EHF[dK]F-OH)",half life in vivo,[1],longer half life
same,cytotoxic effect of cisplatin,[2],without adversely effecting
same,toxic effects,[2],No toxic effects were noted
same,lethality,[3],not lethal
same,permeability of the blood-brain barrier at high dose,[4],dramatically increased
same,toxicity and side effects in humans,[5],non-toxic and had no serious side effects
same,ICP in uninjured animals,[6],not different from control animals
